# According to patent US20220089592A1, “IMIDAZO[1,2-A]PYRIDINYL DERIVATIVES AS IRAK4 INHIBITORS” (priority 2019, published 2022):
# Molecular target: T1, IRAK4 (Homo sapiens, UniProt Q9NWZ3)
# T1 sequence (Q9NWZ3 1-460): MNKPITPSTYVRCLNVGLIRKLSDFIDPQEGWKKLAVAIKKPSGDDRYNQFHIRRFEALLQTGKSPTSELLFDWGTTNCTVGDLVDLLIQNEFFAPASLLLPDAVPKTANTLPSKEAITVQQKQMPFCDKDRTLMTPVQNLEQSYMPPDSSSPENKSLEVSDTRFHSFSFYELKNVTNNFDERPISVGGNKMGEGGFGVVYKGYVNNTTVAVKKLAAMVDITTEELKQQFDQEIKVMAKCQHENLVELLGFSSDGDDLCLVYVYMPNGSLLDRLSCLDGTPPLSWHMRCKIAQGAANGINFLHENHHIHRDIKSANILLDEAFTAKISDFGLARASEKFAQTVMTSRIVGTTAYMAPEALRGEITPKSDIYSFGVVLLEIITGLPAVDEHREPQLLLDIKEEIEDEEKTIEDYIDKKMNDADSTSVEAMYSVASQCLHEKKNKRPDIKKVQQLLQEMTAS
# Experiment: 2-hour 1 mM ATP IRAK4 Biochemical assay (as above, but with 100 pM IRAK4 and 1 mM ATP)
# Conditions: IRAK4 MSD BIOCHEMICAL (1 mM ATP) IC50 (μM), 100 pM IRAK4, 2 hours
# Summary of the method: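 Run with 100 pM IRAK4 and 1 mM ATP for 2 hours, quenched with EDTA pH 8. Phosphorylated biotinylated peptide captured on streptavidin MSD plates and detected with anti-phosphothreonine antibody plus Sulfo-Tag secondary by electrochemiluminescence.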
row,SMILES,IC50 [µM]
1,"COc1nc(NC(=O)c2cccc(C3CC3)n2)cn2cc(C3CCOCC3)nc12 [Example 334, 6-cyclopropyl-N-(8-methoxy-2-(tetrahydro-2H-pyran-4-yl)imidazo[1,2-a]pyrazin-6-yl)picolinamide]",0.008
2,"CCCOc1nc(NC(=O)c2ccccc2OC)cn2cc(C34COC(C)(C3)C4)nc12 [Example 335, 2-methoxy-N-(2-(1-methyl-2-oxabicyclo[2.1.1]hexan-4-yl)-8-propoxyimidazo[1,2-a]pyrazin-6-yl)benzamide]",0.011
3,"CC(C)Oc1nc(NC(=O)c2cccc3ccnn23)cn2cc(C34COC(C)(C3)C4)nc12 [Example 336, N-(8-Isopropoxy-2-(1-methyl-2-oxabicyclo[2.1.1]hexan-4-yl)imidazo[1,2-a]pyrazin-6-yl)pyrazolo[1,5-a]pyridine-7-carboxamide]",0.003
4,"COc1ncccc1C(=O)Nc1cn2cc(C34COC(C)(C3)C4)nc2c(OC(C)C)n1 [Example 337, N-(8-isopropoxy-2-(1-methyl-2-oxabicyclo[2.1.1]hexan-4-yl)imidazo[1,2-a]pyrazin-6-yl)-2-methoxynicotinamide]",0.006
5,"COc1cccn2ncc(C(=O)Nc3cn4cc(C56COC(C)(C5)C6)nc4c(OC(C)C)n3)c12 [Example 338, N-(8-isopropoxy-2-(1-methyl-2-oxabicyclo[2.1.1]hexan-4-yl)imidazo[1,2-a]pyrazin-6-yl)-4-methoxypyrazolo[1,5-a]pyridine-3-carboxamide]",0.002
6,"CC(C)Oc1nc(NC(=O)c2cccc(C(F)F)n2)cn2cc(C3CCOCC3)nc12 [Example 339, 6-(difluoromethyl)-N-(8-isopropoxy-2-(tetrahydro-2H-pyran-4-yl)imidazo[1,2-a]pyrazin-6-yl)picolinamide]",0.016
7,"CC12CC(c3cn4cc(NC(=O)c5coc(C6CC6)n5)nc(OC5CCC5)c4n3)(CO1)C2 [Example 340, N-(8-cyclobutoxy-2-(1-methyl-2-oxabicyclo[2.1.1]hexan-4-yl)imidazo[1,2-a]pyrazin-6-yl)-2-cyclopropyloxazole-4-carboxamide]",0.006
8,"CC12CCC(c3cn4cc(NC(=O)c5coc(C6CC6)n5)nc(OC5CCC5)c4n3)(CO1)C2 (stereo not shown) [Example 341, N-(8-cyclobutoxy-2-(1-methyl-2-oxabicyclo[2.2.1]heptan-4-yl)imidazo[1,2-a]pyrazin-6-yl)-2-cyclopropyloxazole-4-carboxamide]",0.006
9,"O=C(Nc1cn2cc(C3CCOCC3)nc2c(N2CCCC2)n1)c1cccc(C(F)F)n1 [Example 342, 6-(difluoromethyl)-N-(8-(pyrrolidin-1-yl)-2-(tetrahydro-2H-pyran-4-yl)imidazo[1,2-a]pyrazin-6-yl)picolinamide]",0.055
10,"CCOc1nc2nc(C3CCOCC3)cn2cc1NC(=O)c1cccc2c1OCC2 [Example 343, N-(7-ethoxy-2-(tetrahydro-2H-pyran-4-yl)imidazo[1,2-a]pyrimidin-6-yl)-2,3-dihydrobenzofuran-7-carboxamide]",0.004
11,"CCOc1nc2nc(C34COC(C)(C3)C4)cn2cc1NC(=O)c1cccc(C(F)F)n1 [Example 344, 6-(difluoromethyl)-N-(7-ethoxy-2-(1-methyl-2-oxabicyclo[2.1.1]hexan-4-yl)imidazo[1,2-a]pyrimidin-6-yl)picolinamide]",0.001
12,"COc1ncccc1C(=O)Nc1cn2cc(C34COC(C)(C3)C4)nc2nc1OC(C)C [Example 346, N-(7-isopropoxy-2-(1-methyl-2-oxabicyclo[2.1.1]hexan-4-yl)imidazo[1,2-a]pyrimidin-6-yl)-2-methoxynicotinamide]",0.001
13,"CC(C)Oc1nc2nc(C34COC(C)(C3)C4)cn2cc1NC(=O)c1cccc2ncnn12 [Example 348, N-(7-isopropoxy-2-(1-methyl-2-oxabicyclo[2.1.1]hexan-4-yl)imidazo[1,2-a]pyrimidin-6-yl)-[1,2,4]triazolo[1,5-a]pyridine-5-carboxamide]",0.001
